Measurements as given in a melting point compilation (Tetko et al.; mined from patent text by program, amines drawn as free bases though some values may be those of a salt).

Row | Compound | melting point
1 | Cc1cc(C(=O)O)ccc1-c1c(C)cccc1C | 172 to 173 °C
2 | OCc1ccc(Oc2cccnc2)c(C(F)(F)F)c1 | 96 °C
3 | O=CNC1Cc2ccccc2NC1=O (configuration not stated) | 197 to 200 °C
4 | CCN1CCc2ccc(Nc3ncc(Cl)c(N[C@H]4CCCC[C@H]4C(=O)NC)n3)cc2CC1 (relative stereo) | 143 °C
5 | CC(=O)c1ccc(N2CCN(c3cccc(C)c3)CC2)nn1 | 136 °C
6 | CCCCCCCCCCCCCCCCCC(O)c1ccc(O)c(C(=O)O)c1 (configuration not stated) | 102 °C
7 | COc1cccc([C@H]2SC[C@@H](C(=O)OC(C)(C)C)N2C(=O)CNC(=O)Nc2cccc(C(=O)O)c2)c1 | 125 °C
8 | CCCCCCNC(=O)OCc1ccc(CNC(=O)OC2CCN(C(=O)Oc3ccc(Oc4ccccc4)cc3)CC2)cc1 | 116 to 118 °C
9 | Cc1nccn1-c1cnc2[nH]cc(C(=O)C(C)(C)C)c2n1 | 247 to 249 °C
10 | CCCCCCOc1ccc(-c2cc(CBr)ccc2CBr)cc1 | 38.5 to 40.5 °C
11 | CCOC(=O)c1c2ccc(Cl)cc2c(-c2ccccc2)n1CC(=O)N(CC)CC | 118 to 120 °C
12 | COCC1COc2cc3ncnc(Nc4cccc(C(F)(F)F)c4)c3cc2O1 (configuration not stated) | 280 to 282 °C
13 | CCCCNc1ccc(C(=O)O)cc1N | 158 °C
14 | CC(C)CC1(C(C)C(=O)O)CCN(CCc2ccccc2)C1=O (configuration not stated) | 94 to 95 °C
15 | CC(C)c1nccn1-c1ccc([N+](=O)[O-])cc1SC(Cl)(Cl)Cl | 135 °C
16 | COCCOc1cc2ncnc(NC3=CC(=O)C(Oc4ccc(-n5ccnc5)cc4)=CC3=O)c2cc1OC | 124 to 132 °C
17 | COc1cc(C(=O)O)ccc1Cn1cc(CCC(=O)N(C)C)c2ccc(CCC(=O)N(C)C)cc21 | 216 to 218 °C
18 | Cc1ccc(-c2c(Cl)nc3ncnn3c2NC2CCCC2)cc1 | 158 °C
19 | COC(=O)C1=C(C)Nc2ccccc2SC1c1ccc([N+](=O)[O-])cc1 (configuration not stated) | 150 to 152 °C
20 | COc1c(N2CC(C)C(C)(N)C2)c(F)cc2c(=O)c(C(=O)O)cn(C3CC3F)c12 (configuration not stated) | 195 to 196 °C
21 | CCCCCCCCCCCCCCCC[C@]1(CO)CC(=O)N1 | 82 °C
22 | CCCCC=C1SC(=O)N(CCCCOc2cccn3ccnc23)C1=O | 64 to 65 °C
23 | COc1ccc(C2=NN(c3ccc(CCO)cc3)C(=O)[C@H]3CC=CC[C@@H]23)cc1OC (relative stereo) | 137 to 139 °C
24 | COC(=O)C(C)N(C(=O)CCl)c1c(C)cccc1Cl (configuration not stated) | 75 to 78 °C
25 | O=C(O)CCCCCCCOc1nc(-c2ccccc2)c(-c2ccccc2)n1-c1ccccc1 | 158 to 159 °C

Row | Compound | melting point
26 | ON=C(c1ccc(F)cc1)c1ccc2nc(N[C@@H]3CCc4ccccc43)ccc2c1 | 226 °C
27 | CCOC(=O)C(=CNc1ncccc1C)C(=O)OCC | 65 to 67 °C
28 | COc1cccc2c1OC1C=CC=C3C(=O)N(CC4CC4)C(=O)CC321 (configuration not stated) | 166 to 167 °C
29 | NC(=O)c1ccc(F)c2c1CC(N(CCCCc1c[nH]c3ccc(F)cc13)C1CCC1)CO2 (configuration not stated) | 122 °C
30 | CN(CC(=O)O)C[C@@H]1CC(c2ccc(-c3ccc(N4C[C@H](Cn5ccnn5)OC4=O)cc3F)cn2)=NO1 | 212 to 218 °C
31 | COC(C)=CC(=O)Nc1cccc(N(C)C(N)=O)c1 | 166 °C
32 | NC(=Nc1ccc(CCCC(=O)Oc2cccc(Nc3ccccc3)c2)cc1)c1cccs1 | 110 to 112 °C
33 | CC1CC2C3CCC4=CC(=O)C=CC4(C)C3(F)C(O)CC2(C)C1(O)C(=O)COC(=O)c1cccnc1 (configuration not stated) | 262 to 265 °C
34 | O=C(Cc1cccc(C(F)(F)F)c1)N1CCc2cc3c(cc2CC1)OCO3 | 102 to 104 °C
35 | CC1Cc2ccc(Br)cc2C(c2ccc([N+](=O)[O-])cc2)=NN1C(=O)C(F)(F)F (configuration not stated) | 193 to 196 °C
36 | O=C(C=Cc1ccc(O)cc1)C=Cc1ccc(O)cc1 | 236 °C
37 | S=C=Nc1cccc2ccoc12 | 45 to 46 °C
38 | O[C@H](CCc1cccnc1)COc1ccc(-c2ccc(F)cc2)cc1 | 124 to 125 °C
39 | N#CCCNC(=S)C1=CC(CF)(CF)Oc2ccc(C(F)(F)C(F)(F)C(F)(F)F)cc21 | 94 to 95 °C
40 | CCCC(C#N)(Cn1cncn1)c1ccc(F)cc1 (configuration not stated) | 75 to 76 °C
41 | O=c1oc2ccccc2n2cnc(-c3noc(C4CC4)n3)c12 | 234 to 236 °C
42 | COc1ccc(-c2[nH]c3ccc(Cl)cc3c2-c2ccc(S(C)(=O)=O)cc2)cc1 | 246 to 248 °C
43 | O=C(O)c1ccc(Cl)c2c1[nH]c1ccccc12 | 280 °C
44 | CC(C)(C)c1ccc(C=CC2=CC(c3ccc(C(C)(C)C)cc3)N(c3ccccc3)N2)cc1 (configuration not stated) | 188 to 192 °C
45 | CCC(Br)=C1NC(=O)N(C(C(=O)Nc2cc(NC(=O)C(CC)Oc3ccc(C(C)(C)CC)cc3C(C)(C)CC)ccc2Cl)C(=O)C(C)(C)C)C1=O (configuration not stated) | 129 to 131 °C
46 | O=C(O)c1ccc(OC2=C3N=C4CCCCC4=C3C(Cc3ccc(Br)cc3)C=C2)o1 (configuration not stated) | 156 to 158 °C
47 | COc1ccc(S(=O)(=O)N(Cc2cccnc2)c2c(C(=O)O)cnc3cc(C)nn23)cc1 | 249 to 251 °C
48 | Cc1ccc(C(=O)c2ccc(CC(=O)O)n2C)c(Cl)c1 | 176 to 178 °C
49 | Cc1cc(Oc2ccc(N)cc2)c2ncccc2c1 | 184 to 185 °C
50 | O=[N+]([O-])c1ccc(C23CCN(CC2)CC3)cc1 | 130 to 135 °C

Row | Compound | melting point
51 | BrCCCNC(c1ccccc1)(c1ccccc1)c1ccccc1 | 100 to 102 °C
52 | O=C(O)C1=CSC2C(=Cc3cc4c(s3)CCOC4)C(=O)N12 (configuration not stated) | > 250 °C
53 | CCOC(=O)c1ccc(C=Cc2ccc(OC)cc2)cc1 | 191 to 192 °C
54 | O=C(O)CCCc1ccc([N+](=O)[O-])cn1 | 108 to 110 °C
55 | COc1ccc(S(=O)(=O)N2C(=O)C(c3ccccc3OC)(N3CCC[C@H]3C(=O)OC(C)(C)C)c3cc(Cl)ccc32)c(OC)c1 (some centres not stated) | 136 °C
56 | Cn1cc(-c2ncc(-c3ccc4cc(OCC(=O)O)ccc4c3)o2)c2ccccc21 | 269 to 272 °C
57 | CN(CCNC(=O)NCCCOc1cccc(CN2CCCCC2)c1)CCN(Cc1ccc(F)cc1)c1ccccn1 | 68 °C
58 | Cc1ccc(Oc2ccc(OC(=O)NC(C)CCCC(C)C)cc2)cc1 (configuration not stated) | 45 to 47 °C
59 | COC(=O)Cc1ccc(OS(=O)(=O)C(F)(F)F)c(NC(C)=O)c1 | 68.5 to 70 °C
60 | COCCOCOc1c(Cl)cc(C=O)c(Cl)c1OCOCCOC | 50 °C
61 | CCc1nc2c(N)nc3ccccc3c2n1CC1(O)CCSCC1 | > 250 °C
62 | CCCCn1c(=O)cnn(-c2ccc(N3CCN(c4ccc(OC)cc4)CC3)cc2)c1=O | 181 °C
63 | O=C(Nc1cccc(C(F)(F)F)c1F)c1ccccc1[N+](=O)[O-] | 156 to 157 °C
64 | Cc1coc2c1C(=O)CC(c1ccco1)C2 (configuration not stated) | 60 to 61 °C
65 | N#Cc1ccc(C=O)c(-c2ccco2)c1 | 125 °C
66 | O=C(NCc1ccc(Cl)cc1)c1cnc2sc(C(=O)N3CCOCC3)cc2c1O | 217 to 219 °C
67 | CON=C(C(C)=O)C(=O)OC | 64.4 °C
68 | CC(O)c1nc(N)nc(N)c1-c1ccc(Cl)cc1 (configuration not stated) | 159 °C
69 | N#CC(CF)(CF)CF | 70 to 75 °C
70 | CSCCSc1nc(C(C)(C)C)n[nH]1 | 114 to 116 °C
71 | COc1ccc(Oc2ccc3nc(COc4ccc(CC5SC(=O)NC5=O)cc4)n(C)c3c2)cc1 (configuration not stated) | 122 to 126 °C
72 | CCOC(=O)c1cc(-c2ccccc2)oc1-c1ccc(OC)c(OC)c1 | 68 °C
73 | Cc1cc2cn[nH]c2c(C(=O)NC2(C3CC3)CC2)c1NC(=O)c1cc(OCC(F)(F)F)nn1-c1ncccc1Cl | 240 to 242 °C
74 | Cc1cc(C)c(S(=O)(=O)OC[C@@H]2C[C@@H]2COS(=O)(=O)c2c(C)cc(C)cc2C)c(C)c1 | 240 °C
75 | O=C1C(c2ccccc2)=C(c2ccccc2)C(c2ccccc2)C1c1ccccc1 (configuration not stated) | 162 to 163 °C

Row | Compound | melting point
76 | COc1ccc(CN(C)CCCCCc2ccc(NC(=O)c3cccc4c(=O)c5ccccc5[nH]c34)cc2)cc1OC | 110 °C
77 | CCCc1nc(C)c2c(=O)[nH]c(C)nn12 | 228 to 231 °C
78 | COc1cc(OC)c(-c2cc3ccccc3[nH]2)cc1C=CC(=O)c1ccc(C(=O)O)cc1 | 210 to 212 °C
79 | CCOC(=O)c1nc(-c2ccc(Cl)cc2F)cc(N)c1OCC(F)(F)F | 123 to 135 °C
80 | CCCc1nn(-c2ccc(C(F)(F)F)cn2)cc1CCCOc1cc(CC(=O)O)ccc1OCC | 124 to 125 °C
81 | Clc1ccc(N2CCN(CCc3ccccc3)CC2)nn1 | 140 °C
82 | CCC1CCc2[nH]cc3c(=O)n(-c4ccc(Cl)cc4)nc-3c2C1 (configuration not stated) | 318 to 320 °C
83 | CC(=O)NC[C@H]1CN(c2ccc(-n3nccc3-c3ccccn3)c(F)c2)C(=O)O1 | 79.9 to 82.1 °C
84 | Nc1nc2c(c(=O)n1N)Cc1nc(N)n(N)c(=O)c1C2 | > 300 °C
85 | CCn1c(=O)c(NC(=O)Nc2ccc(F)cc2F)c(-c2ccccc2Cl)c2cc(C)cc(C)c21 | 186 to 188 °C
86 | N#CC(CC(=O)O)(c1ccc(F)cc1)c1ccc(F)cc1 | 165 to 166 °C
87 | CC(C)N(Cc1ccc2cc(NC(=O)N3CCC(c4ccc(Cl)cc4)CC3)ccc2n1)C(C)C | 201 to 203 °C
88 | CN1Cc2ccc(Cl)c3scc(c23)S1(=O)=O | 146 °C
89 | COc1ccc(CCNCC(O)c2ccccc2)cc1Cl (configuration not stated) | 95 to 96 °C
90 | CS(=O)(=O)c1ccc(N2CCC3(CC2)Nc2cc(Cl)ccc2C(=O)O3)cc1 | 193 to 194 °C
91 | CC(C)c1nn(-c2ccc(C(F)(F)F)cn2)cc1CCCOc1cc(CCC(=O)O)n(-c2ccccc2)n1 | 139 to 140 °C
92 | C[C@@H]1CCC[C@H](C)N1CCNc1ccnc2cc(Cl)ccc12 | 138 to 139 °C
93 | CN1CC[C@@H](c2c(O)cc(O)c3c(=O)cc(-c4ccccc4)oc23)[C@@H]1CO | 212 to 215 °C
94 | c1ccc(CNC2CN(C(c3ccccc3)c3ccccc3)C2)cc1 | 73 to 75 °C
95 | CCCc1nn(C)c2c(-c3ccc(SC)cc3)nc(-c3ccc(F)cc3)nc12 | 114 to 116 °C
96 | CNCCC(=O)N1c2ccccc2N2CCc3cccc(c32)C1C (configuration not stated) | 124 to 126 °C
97 | Cc1cccc(N2CCN(CCc3c(C)nc4c(C)cccn4c3=O)CC2)c1 | 106 °C
